Data taken from the supplement of paper PMC8612539.
Values after ≈ are worked out from the molar mass of the structure shown.

How the values were obtained:
Mannheimia haemolytica = experiment: minimum inhibitory concentration (MIC)
Experimental: (§1)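 Broth microdilution MIC (Sensititre BOPO7F bovine plate, CLSI methods) of 19 antimicrobials against field isolates of P. multocida, M. haemolytica, H. somni (deep nasopharyngeal swabs) and E. coli, Enterococcus spp. (rectal swabs) from weaned dairy heifers. Incubation 16-24 h at 35 C. MIC is the lowest concentration preventing visible growth. Values with <= or > lie at the tested range limits. Trimethoprim-sulfamethoxazole is given as the trimethoprim component of a 1:19 mixture.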

Enterococcus spp. = experiment: minimum inhibitory concentration (MIC)
Experimental: as §1

CN[C@@H]1[C@H](O)[C@H](NC)[C@H]2O[C@@]3(O)C(=O)C[C@@H](C)O[C@H]3O[C@@H]2[C@H]1O [Spectinomycin]
minimum inhibitory concentration [µg/mL]
Conditions | Enterococcus spp. | Mannheimia haemolytica
isolate (source animal id): 2 | 64 (≈ 193 µM) | –
isolate (source animal id): 35 | > 64 | –
isolate (source animal id): 42 | 64 (≈ 193 µM) | –
isolate (source animal id): 44 | 64 (≈ 193 µM) | –
isolate (source animal id): 79 | 64 (≈ 193 µM) | –
isolate (source animal id): 88 | 32 (≈ 96.3 µM) | –
isolate (source animal id): 91 | 32 (≈ 96.3 µM) | –
isolate (source animal id): 92 | 16 (≈ 48.1 µM) | –
isolate (source animal id): 111 | 32 (≈ 96.3 µM) | –
isolate (source animal id): 122 | > 64 | –
isolate (source animal id): 123 | 64 (≈ 193 µM) | –
isolate (source animal id): 133 | 64 (≈ 193 µM) | –
isolate (source animal id): 158 | 64 (≈ 193 µM) | –
isolate (source animal id): 168 | 64 (≈ 193 µM) | –
isolate (source animal id): 169 | 64 (≈ 193 µM) | –
isolate (source animal id): 171 | 64 (≈ 193 µM) | –
isolate (source animal id): 175 | 64 (≈ 193 µM) | –
isolate (source animal id): 177 | 64 (≈ 193 µM) | –
isolate (source animal id): 181 | 64 (≈ 193 µM) | –
isolate (source animal id): 182 | 64 (≈ 193 µM) | –
isolate (source animal id): 183 | 64 (≈ 193 µM) | –
isolate (source animal id): 187 | 64 (≈ 193 µM) | –
isolate (source animal id): 190 | 64 (≈ 193 µM) | –
isolate (source animal id): 194 | 64 (≈ 193 µM) | –
isolate (source animal id): 195 | 64 (≈ 193 µM) | –
isolate (source animal id): 197 | 64 (≈ 193 µM) | –
isolate (source animal id): 211 | 64 (≈ 193 µM) | –
isolate (source animal id): 214 | 64 (≈ 193 µM) | –
isolate (source animal id): 222 | 64 (≈ 193 µM) | –
isolate (source animal id): 223 | 64 (≈ 193 µM) | –
isolate (source animal id): 228 | 64 (≈ 193 µM) | –
isolate (source animal id): 230 | 64 (≈ 193 µM) | –
isolate (source animal id): 235 | 64 (≈ 193 µM) | –
isolate (source animal id): 236 | 64 (≈ 193 µM) | –
isolate (source animal id): 239 | 64 (≈ 193 µM) | –
isolate (source animal id): 241 | 64 (≈ 193 µM) | –
isolate (source animal id): 244 | 64 (≈ 193 µM) | –
isolate (source animal id): 246 | 64 (≈ 193 µM) | –
isolate (source animal id): 247 | 64 (≈ 193 µM) | –
isolate (source animal id): 250 | 64 (≈ 193 µM) | –
isolate (source animal id): 252 | 64 (≈ 193 µM) | –
isolate (source animal id): 268 | 32 (≈ 96.3 µM) | –
isolate (source animal id): 282 | 16 (≈ 48.1 µM) | –
isolate (source animal id): 285 | > 64 | –
isolate (source animal id): 288 | – | 32 (≈ 96.3 µM)
isolate (source animal id): 289 | 64 (≈ 193 µM) | –
isolate (source animal id): 290 | 64 (≈ 193 µM) | –
isolate (source animal id): 291 | – | 32 (≈ 96.3 µM)
isolate (source animal id): 293 | – | 16 (≈ 48.1 µM)
isolate (source animal id): 296 | 64 (≈ 193 µM) | –
isolate (source animal id): 298 | 64 (≈ 193 µM) | 16 (≈ 48.1 µM)
isolate (source animal id): 299 | – | 32 (≈ 96.3 µM)
isolate (source animal id): 300 | – | 32 (≈ 96.3 µM)
isolate (source animal id): 301 | 32 (≈ 96.3 µM) | –
isolate (source animal id): 302 | – | 32 (≈ 96.3 µM)
isolate (source animal id): 304 | – | 32 (≈ 96.3 µM)
isolate (source animal id): 306 | – | 32 (≈ 96.3 µM)
isolate (source animal id): 308 | – | 32 (≈ 96.3 µM)
isolate (source animal id): 309 | – | 32 (≈ 96.3 µM)
isolate (source animal id): 310 | 64 (≈ 193 µM) | –
isolate (source animal id): 313 | – | 16 (≈ 48.1 µM)
isolate (source animal id): 318 | – | 16 (≈ 48.1 µM)
isolate (source animal id): 320 | 64 (≈ 193 µM) | 32 (≈ 96.3 µM)
isolate (source animal id): 321 | – | 16 (≈ 48.1 µM)
isolate (source animal id): 323 | – | 32 (≈ 96.3 µM)
isolate (source animal id): 324 | – | 16 (≈ 48.1 µM)
isolate (source animal id): 326 | – | 16 (≈ 48.1 µM)
isolate (source animal id): 328 | – | 16 (≈ 48.1 µM)
isolate (source animal id): 329 | – | 16 (≈ 48.1 µM)
isolate (source animal id): 331 | 64 (≈ 193 µM) | –
isolate (source animal id): 333 | 64 (≈ 193 µM) | 16 (≈ 48.1 µM)
isolate (source animal id): 335 | – | 16 (≈ 48.1 µM)
isolate (source animal id): 338 | – | 16 (≈ 48.1 µM)
isolate (source animal id): 341 | 64 (≈ 193 µM) | –
